The IC50 is the concentration needed to halve the response being measured. In general, IC90 refers to the concentration needed for an effect of 90%.

The values below come from patent US9328122B2, “7-substituted Hanfangichin B derivative, and preparation method and use thereof” (HANGZHOU BENSHENG PHARMACEUTICAL CO., LTD., priority 2012, dated 2016).

SMILES strings stand for the structures. ≈ marks a conversion by molar mass, not a printed value.

For one assay, the system named is K562/ADR (K562adr, drug-resistant chronic myeloid leukemia) cells. In words: MTT cell growth inhibition, leukemia cells. It counts as cell-based. To be noted: Homo sapiens; K562/ADR, 72 h, MTT; read-out: IC50. The procedure, abridged: (§1)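 Growth inhibition is assessed by MTT after leukemia cells, plated at 6000 per well in RPMI-1640 containing 10% fetal bovine serum, are exposed for 72 hours to graded compound concentrations added the day after plating.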
For the compound `C=CCN(C)CC(O)COc1c(OC)cc2c3c1Oc1cc4c(cc1OC)CCN(C)[C@H]4Cc1ccc(cc1)Oc1cc(ccc1OC)C[C@@H]3N(C)CC2` (some centres unmarked) [BS-FC-409], the half-maximal inhibitory concentration (IC50) was found to be 0.16 µg/mL (≈ 0.217 µM).

Still in this assay, the particulars now being: Homo sapiens; K562/ADR, 72 h, MTT; read-out: IC90.
Take `C=CCN(C)CC(O)COc1c(OC)cc2c3c1Oc1cc4c(cc1OC)CCN(C)[C@H]4Cc1ccc(cc1)Oc1cc(ccc1OC)C[C@@H]3N(C)CC2` (some centres unmarked) [BS-FC-409]: the IC90 is 1.38 µg/mL (≈ 1.88 µM).

Another assay concerns NB4 (acute promyelocytic leukemia) cells. Nature of the assay: MTT cell growth inhibition, leukemia cells. It counts as cell-based. To be noted: Homo sapiens; NB4, 72 h, MTT; read-out: IC50. Summed up: as §1
Consider `C=CCN(C)CC(O)COc1c(OC)cc2c3c1Oc1cc4c(cc1OC)CCN(C)[C@H]4Cc1ccc(cc1)Oc1cc(ccc1OC)C[C@@H]3N(C)CC2` (some centres unmarked) [BS-FC-409], for which the IC50 is 0.59 µg/mL (≈ 0.802 µM).

Still in this assay, the particulars now being: Homo sapiens; NB4, 72 h, MTT; read-out: IC90.
`C=CCN(C)CC(O)COc1c(OC)cc2c3c1Oc1cc4c(cc1OC)CCN(C)[C@H]4Cc1ccc(cc1)Oc1cc(ccc1OC)C[C@@H]3N(C)CC2` (some centres unmarked) [BS-FC-409]: the IC90 was found to be 1.76 µg/mL (≈ 2.39 µM).

Another assay concerns H9 (acute lymphoblastic leukemia) cells. In words: MTT cell growth inhibition, leukemia cells. The class given is cell-based, human. Conditions: Homo sapiens; H9, 72 h, MTT; read-out: IC50. The procedure, abridged:
as §1
For the compound `C=CCN(C)CC(O)COc1c(OC)cc2c3c1Oc1cc4c(cc1OC)CCN(C)[C@H]4Cc1ccc(cc1)Oc1cc(ccc1OC)C[C@@H]3N(C)CC2` (some centres unmarked) [BS-FC-409], the IC50 turned out to be 0.9 µg/mL (≈ 1.22 µM).

Staying with this assay, now noted: Homo sapiens; H9, 72 h, MTT; read-out: IC90.
In the case of `C=CCN(C)CC(O)COc1c(OC)cc2c3c1Oc1cc4c(cc1OC)CCN(C)[C@H]4Cc1ccc(cc1)Oc1cc(ccc1OC)C[C@@H]3N(C)CC2` (some centres unmarked) [BS-FC-409], the IC90 came to 2 µg/mL (≈ 2.72 µM).

A further assay has as its system Jurkat (acute lymphoblastic leukemia) cells. In words: MTT cell growth inhibition, leukemia cells. The class given is cell-based, human. To be noted: Homo sapiens; Jurkat, 72 h, MTT; read-out: IC50. The procedure, abridged: as §1
For `C=CCN(C)CC(O)COc1c(OC)cc2c3c1Oc1cc4c(cc1OC)CCN(C)[C@H]4Cc1ccc(cc1)Oc1cc(ccc1OC)C[C@@H]3N(C)CC2` (some centres unmarked) [BS-FC-409], the half-inhibitory concentration (IC50) stood at 1.02 µg/mL (≈ 1.39 µM).

The same assay, now with this note: Homo sapiens; Jurkat, 72 h, MTT; read-out: IC90.
As for `C=CCN(C)CC(O)COc1c(OC)cc2c3c1Oc1cc4c(cc1OC)CCN(C)[C@H]4Cc1ccc(cc1)Oc1cc(ccc1OC)C[C@@H]3N(C)CC2` (some centres unmarked) [BS-FC-409], the IC90 was found to be 3.33 µg/mL (≈ 4.52 µM).

In the next assay the test system is Kasumi-1 (acute myeloid leukemia M2 type) cells. Nature of the assay: MTT cell growth inhibition, leukemia cells. It counts as cell-based, human. Conditions: Homo sapiens; Kasumi-1, 72 h, MTT; read-out: IC50. Summed up:
as §1
For `C=CCN(C)CC(O)COc1c(OC)cc2c3c1Oc1cc4c(cc1OC)CCN(C)[C@H]4Cc1ccc(cc1)Oc1cc(ccc1OC)C[C@@H]3N(C)CC2` (some centres unmarked) [BS-FC-409], the IC50 was 1.46 µg/mL (≈ 1.98 µM).

The assay is the same for the next values; noted with them: Homo sapiens; Kasumi-1, 72 h, MTT; read-out: IC90.
As to `C=CCN(C)CC(O)COc1c(OC)cc2c3c1Oc1cc4c(cc1OC)CCN(C)[C@H]4Cc1ccc(cc1)Oc1cc(ccc1OC)C[C@@H]3N(C)CC2` (some centres unmarked) [BS-FC-409], the IC90 is 4.82 µg/mL (≈ 6.55 µM).

For another assay, the system named is RPMI 8226 (multiple myeloma) cells. Nature of the assay: MTT cell growth inhibition, multiple myeloma cells. The class given is cell-based, human. To be noted: Homo sapiens; RPMI 8226, 72 h, MTT; read-out: IC50. The procedure, abridged: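 RPMI 8226 myeloma cells, 6000 per well in RPMI-1640 with 10% FBS, were dosed with fangchinoline derivatives at several concentrations the day after seeding. Incubation ran 72 h at 37° C in 5% CO2, then viable cells were measured by MTT.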
Consider `C=CCN(C)CC(O)COc1c(OC)cc2c3c1Oc1cc4c(cc1OC)CCN(C)[C@H]4Cc1ccc(cc1)Oc1cc(ccc1OC)C[C@@H]3N(C)CC2` (some centres unmarked) [BS-FC-409], for which the IC50 was 0.04 µg/mL (≈ 0.0544 µM).

The same assay, now with this note: Homo sapiens; RPMI 8226, 72 h, MTT; read-out: IC90.
On to `C=CCN(C)CC(O)COc1c(OC)cc2c3c1Oc1cc4c(cc1OC)CCN(C)[C@H]4Cc1ccc(cc1)Oc1cc(ccc1OC)C[C@@H]3N(C)CC2` (some centres unmarked) [BS-FC-409], for which the IC90 stood at 0.5 µg/mL (≈ 0.679 µM).

For the next assay, the system named is CNE (nasopharyngeal carcinoma) cells. Nature of the assay: MTT cell growth inhibition, solid tumor cells. It counts as cell-based, human. To be noted: Homo sapiens; CNE, 72 h, MTT; read-out: IC50. Summed up: (§2)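 Exposure lasted 72 h, following 24 h growth of 6000 cells/well in DMEM high glucose containing 10% FBS at 37 °C in 5% CO2; endpoint was MTT-based viable cell concentration across tested compound concentrations.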
With `C=CCN(C)CC(O)COc1c(OC)cc2c3c1Oc1cc4c(cc1OC)CCN(C)[C@H]4Cc1ccc(cc1)Oc1cc(ccc1OC)C[C@@H]3N(C)CC2` (some centres unmarked) [BS-FC-409], the IC50 was 0.95 µg/mL (≈ 1.29 µM).

Still in this assay, the particulars now being: Homo sapiens; CNE, 72 h, MTT; read-out: IC90.
Take `C=CCN(C)CC(O)COc1c(OC)cc2c3c1Oc1cc4c(cc1OC)CCN(C)[C@H]4Cc1ccc(cc1)Oc1cc(ccc1OC)C[C@@H]3N(C)CC2` (some centres unmarked) [BS-FC-409]: the IC90 was found to be 3.94 µg/mL (≈ 5.35 µM).

The subject of another assay is CaEs-17 (esophageal cancer) cells. Nature of the assay: MTT cell growth inhibition, solid tumor cells. The class given is cell-based, human. To be noted: Homo sapiens, CaEs17; CaEs-17, 72 h, MTT; read-out: IC50. The procedure, abridged:
as §2
As to `C=CCN(C)CC(O)COc1c(OC)cc2c3c1Oc1cc4c(cc1OC)CCN(C)[C@H]4Cc1ccc(cc1)Oc1cc(ccc1OC)C[C@@H]3N(C)CC2` (some centres unmarked) [BS-FC-409], the IC50 worked out at 0.91 µg/mL (≈ 1.24 µM).

The same assay, now with this note: Homo sapiens, CaEs17; CaEs-17, 72 h, MTT; read-out: IC90.
Turning to `C=CCN(C)CC(O)COc1c(OC)cc2c3c1Oc1cc4c(cc1OC)CCN(C)[C@H]4Cc1ccc(cc1)Oc1cc(ccc1OC)C[C@@H]3N(C)CC2` (some centres unmarked) [BS-FC-409], the concentration for an effect of 90% (IC90) was 4.9 µg/mL (≈ 6.66 µM).

The subject of a further assay is PANC-1 (pancreatic cancer) cells. In words: MTT cell growth inhibition, solid tumor cells. The class given is cell-based, human. Conditions: Homo sapiens; PANC-1, 72 h, MTT; read-out: IC50. The procedure, abridged:
as §2
Take `C=CCN(C)CC(O)COc1c(OC)cc2c3c1Oc1cc4c(cc1OC)CCN(C)[C@H]4Cc1ccc(cc1)Oc1cc(ccc1OC)C[C@@H]3N(C)CC2` (some centres unmarked) [BS-FC-409]: the IC50 was 3.17 µg/mL (≈ 4.31 µM).
